From patent US7521447B2, “P38 inhibitors and methods of use thereof” (Array Biopharma Inc., priority 2003, dated 2009)

Key:
activated p38α enzyme = activated p38α enzyme (Homo sapiens, UniProt Q16539); experiment: p38 Biochemical Assay; design: key: An “active” compound is defined as a compound having an IC50 below 500 nM; settings: 5 nM activated p38α, 1 uM ATF-2 substrate, 10 μM ATP
Description: P38 activity was assayed at room temperature in a 100 μl reaction containing 5 nM activated p38α enzyme and 1 uM ATF-2 (Activating Transcription Factor 2 fusion protein) as the substrate in 25 mM HEPES (pH 7.4), 100 μM Vanadate, 1 mM DTT, 10 mM MgCl2 and 10 μM [[…]-^33P]-ATP (˜0.1 μCi P^33/reaction). The reaction was terminated after 30-40 minutes by adding 25% TCA, let stand for 5 minutes and then transferred directly to a GF-B membrane filter plate. The filter was washed twice for 30 seconds with 0.5% phosphoric acid using a Tomtec Mach III Automated Harvestor. After washing, the vacuum was continued for 30 seconds to dry the filter. Approximately 30 μl of scintillant was added per well to the filter plate and then read in a Liquid Scintillation Counter (Packard TopCount HTS).

[1] = test system: LPS-induced TNF-α secretion from human peripheral blood mononuclear cells (PBMC); experiment: PBMC Assay: inhibition of LPS-induced TNF-α secretion; format: cell-based; design: key: An “active” compound is defined as a compound having an IC50 below 500 nM; settings: LPS-stimulated human PBMC, TNF-α ELISA
Description: The ability of compounds of this invention to inhibit TNF-α production was assessed by using human peripheral blood mononuclear cells (“PBMC”) which synthesize and secrete TNF-α when stimulated with lipopolysaccharide.
Compound test solutions were made by making 5 fold serial dilutions in DMSO, which dilutions were then diluted to 5× stocks by diluting with MEM, 2% heat inactivated fetal bovine serum (“FBS”), 20 mM HEPES, 2 mM L-glutamine, and 1% penicillin/streptomycin.
PBMC's were isolated from human blood as follows. Whole blood samples were collected from human volunteers into Vacutainer™ CPT from Becton Dickinson. Tubes were mixed and centrifuged at room temperature (18-25° C.) in a horizontal rotor for a minimum of 15 minutes at 1500-1800 RCF (relative centrifugal force). For each donor, the buffy coat layers were pooled into a single tube and washed twice with phosphate buffered saline (“PBS”). The cell pellet was resuspended in MEM, 2% heat inactivated fetal bovine serum (“FBS”), 20 mM HEPES, 2 mM L-glutamine, and 1% penicillin/streptomycin. Total cell number was determined using a hemocytometer and the cell suspension was adjusted to 2×10^6 cells/mL.
0.1 mL of cell suspension was added to each well of a 96-well cell culture plate. 30 μL of a compound test solution was added, and the cells were incubated in a 37° C./5% CO2 incubator for 1 hour. 20 μL of 7.5 ng/mL lipopolysaccharide (LPS E. Coli K-235) was then added to each well, and the cells were returned to the 37° C./5% CO2 incubator for 16-20 hours. The cells were centrifuged for 15 minutes at 1100 RCF. Approximately 0.12 mL of the supernatant was transferred into a clean 96 well polypropylene plate. The samples were either assayed immediately or were stored at −80° C. until ready for assay. TNF-α levels were determined in each sample using a human TNF-α ELISA assay such as that described below.
TNF-α levels were determined using the following assay. TNF-alpha antibody coated plates were prepared by adding 150 μL of 2 μg/mL anti-TNF-α purified mouse monoclonal IgG in Carbonate-Bicarbonate buffer (BupH™ Carbonate-Bicarbonate Buffer Pack) to wells of a 96-well Immulon 4 plate (Immulon 4 ELISA Flat Bottom Plate; Dynex, catalog number 011-010-3855) and incubated overnight at 2-8° C. Coating solution was removed and 200 μL of “blocking buffer” (20 mM HEPES pH 7.4, 150 mM NaCl, 2% BSA) was added and plates were stored 2-8° C. until ready to use. A ten-point recombinant human TNF-α standard curve was prepared by a 1:2 serial dilution in “sample diluent” (20 mM HEPES, pH 7.4, 150 mM NaCl, 2 mM MgCl2, 1% BSA) with a top concentration of 6000 pg/mL.
Blocking solution was removed from TNF-α ELISA plates by washing five times with 300 μL of “wash buffer” (20 mM HEPES, pH 7.4, 150 mM NaCl, 2 mM MgCl2, 0.02% Tween-20). 50 μL of “sample diluent” was added to all wells, and then either 50 μL of a TNF-α standard curve solution or test compound supernatant was added to all wells. The plate was incubated at room temperature for one hour with shaking (300 rpm). The plate was washed wash five times with 300 μL “wash buffer”. 100 μL of 0.2 μg/mL biotinylated goat anti-human TNF-α in “antibody diluent” (20 mM HEPES, pH 7.4, 150 mM NaCl, 2 mM MgCl2, 1% BSA, 0.02% Tween-20) was added per well, and the plate was incubated at room temperature for one hour with shaking (300 rpm). The plate was washed wash five times with 300 μL “wash buffer” per well. 100 μL of 0.02 μg/mL streptavidin alkaline phosphatase in “antibody diluent” was added per well, and the plate was incubated at room temperature for one hour with shaking (300 rpm). The plate was washed wash five times with 300 μL wash buffer per well. 200 μL of 1 mg/mL pNPP (p-nitrophenyl phosphate) in diethanolamine buffer with 0.5 mM MgCl2 was added per well, and the plate was incubated for 30 to 45 minutes at room temperature with shaking (300 rpm). […]

Sequence of activated p38α enzyme (Q16539 whole entry, the tested form may be a part): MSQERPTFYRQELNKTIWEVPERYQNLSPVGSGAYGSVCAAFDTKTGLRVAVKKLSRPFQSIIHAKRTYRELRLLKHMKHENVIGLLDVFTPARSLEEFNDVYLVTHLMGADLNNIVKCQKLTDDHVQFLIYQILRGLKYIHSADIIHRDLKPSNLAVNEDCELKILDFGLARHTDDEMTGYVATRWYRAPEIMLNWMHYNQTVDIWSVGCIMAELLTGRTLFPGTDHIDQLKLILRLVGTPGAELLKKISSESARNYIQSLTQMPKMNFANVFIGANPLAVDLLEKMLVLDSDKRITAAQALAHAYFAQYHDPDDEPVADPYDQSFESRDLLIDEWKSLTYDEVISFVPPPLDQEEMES

| Structure (SMILES) | p38 Inhibition IC50 (nM) (activated p38α enzyme) | PBMC IC50 (nM) [1] |
| --- | --- | --- |
| COC(=O)C(CCN)NC(=O)c1cc2c(cnn2CC(F)(F)F)cc1Oc1ccc(F)cc1 (stereo not shown) [Compound 1j-4, 4-amino-2-{[5-(4-fluorophenoxy)-1-(2,2,2-trifluoroethyl)-1H-indazole-6-carbonyl]-amino}butyric acid methyl ester] | active | – |
| Cc1ccccc1C(O)c1ccc2c(cnn2CC(C)C)c1 (stereo not shown) [Compound 4f-10, (1-isobutyl-1H-indazol-5-yl)-O-tolyl methanol] | active | – |
| O=C(c1ccc2c(cnn2CC(F)(F)F)c1)c1ccc(F)cc1F [Compound 5f-11, (2,4-difluorophenyl)-[1-(2,2,2-trifluoro-ethyl)-1H-indazol-5-yl]-methanone] | active | – |
| C=CCn1ncc2cc(C(=O)c3ccc(F)cc3F)ccc21 [Compound 5f-12, (1-allyl-1H-indazol-5-yl)-(2,4-difluorophenyl)-methanone] | active | – |
| Cc1ccc(-n2nc(C(C)(C)C)cc2NC(=O)NCc2cccnc2Oc2ccc3c(cnn3C)c2)cc1 [Compound 6n, 1-(5-tert-butyl-2-p-tolyl-2H-pyrazol-3-yl)-3-[2-(1-methyl-1H-indazol-5-yloxy)-pyridin-3-ylmethyl]-urea] | active | – |
| ON=C(c1ccc2c(cnn2CC(F)(F)F)c1)c1ccc(F)cc1F [Compound 7f-12, (2,4-difluorophenyl)-[1-(2,2,2-trifluoroethyl)-1H-indazol-5-yl]-methanone oxime] | active | – |
| CON=C(c1ccc2c(cnn2CC(F)(F)F)c1)c1ccc(F)cc1F [Compound 7f-13, (2,4-difluorophenyl)-[1-(2,2,2-trifluoro-ethyl)-1H-indazol-5-yl]-methanone O-methyl oxime] | active | – |
| CS(=O)(=O)n1ncc2cc(C(=NO)c3ccc(F)cc3F)ccc21 [Compound 7f-14, (2,4-difluorophenyl)-(1-methanesulfonyl-1H-indazol-5-yl)methanone oxime] | active | – |
| CON=C(c1ccc2c(cnn2S(C)(=O)=O)c1)c1ccc(F)cc1F [Compound 7f-15, (2,4-difluorophenyl)-(1-methanesulfonyl-1H-indazol-5-yl)-methanone O-methyl oxime] | active | – |
| C=CCn1ncc2cc(C(=NO)c3ccc(F)cc3F)ccc21 [Compound 7f-17, (1-allyl-1H-indazol-5-yl)-(2,4-difluorophenyl)-methanone oxime] | active | – |
| Cc1ccc(-n2nc(C(C)(C)C)cc2NC(=O)NCc2cc(F)ccc2Oc2ccc3c(cnn3C)c2)cc1 [Compound 7t-1, 1-(5-tert-butyl-2-p-tolyl-2H-pyrazol-3-yl)-3-[5-fluoro-2-(1-methyl-1H-indazol-5-yloxy)-benzyl]urea] | active | – |
| Cc1ccc(-n2nc(C(C)(C)C)cc2NC(=O)NCc2cc(F)ccc2Nc2ccc3c(cnn3CC3CCC3)c2)cc1 [Compound 9q-2, 1-(5-tert-butyl-2-p-tolyl-2H-pyrazol-3-yl)-3-[2-(1-cyclobutylmethyl-1H-indazol-5-ylamino)-5-fluorobenzyl]-urea] | active | – |
| CN(C)CCNC(=O)c1cc2c(cnn2CC(F)(F)F)cc1Oc1ccc(F)cc1 [Compound 11g-14, 5-(4-fluorophenoxy)-1-(2,2,2-trifluoroethyl)-1H-indazole-6-carboxylic acid (2-dimethylaminoethyl) amide] | active | – |
| CC(C)Cn1ncc2cc(Oc3ccccc3CC(=O)Nc3ccc(N4CCOCC4)cc3)ccc21 [Compound 16p, 2-[2-(1-isobutyl-1H-indazol-5-yloxy)-phenyl]-N-(4-morpholin-4-yl-phenyl)-acetamide] | active | – |
| Cc1ccc(-n2nc(C(C)(C)C)cc2NC(=O)N(C)Cc2cc(F)ccc2Oc2ccc3c(cnn3C)c2)cc1 [Compound 28t, 3-(5-tert-butyl-2-p-tolyl-2H-pyrazol-3-yl)-1-[5-fluoro-2-(1-methyl-1H-indazol-5-yloxy)-benzyl]-1-methylurea] | active | – |

Continued, in another order:

| p38 Inhibition IC50 (nM) (activated p38α enzyme) | Structure (SMILES) | PBMC IC50 (nM) [1] |
| --- | --- | --- |
| active | COC(=O)C(CCN)NC(=O)c1cc2c(cnn2CC(C)C)cc1Oc1ccc(F)cc1 (stereo not shown) [Compound 1j-2, 4-amino-2-{[5-(4-fluorophenoxy)-1-isobutyl-1H-indazole-6-carbonyl]-amino}butyric acid methyl ester] | – |
| active | CC(C)Cn1ncc2cc(Nc3ccc(F)cc3F)ccc21 [Compound 2h-1, (2,4-difluorophenyl)-(1-isobutyl-1H-indazol-5-yl)-amine] | active |
| active | CC(C)Cn1ncc2cc(C(O)c3ccc(Cl)cc3F)ccc21 (stereo not shown) [Compound 4f-7, (4-chloro-2-fluorophenyl)-(1-isobutyl-1H-indazol-5-yl)-methanol] | – |
| active | CC(C)Cn1ncc2cc(C(O)c3ccc(F)cc3Cl)ccc21 (stereo not shown) [Compound 4f-8, (2-chloro4-fluorophenyl)-(1-isobutyl-1H-indazol-5-yl)-methanol] | – |
| active | CC(C)Cn1ncc2cc(C(=O)c3ccc(F)cc3Cl)ccc21 [Compound 5f-8, (2-chloro-4-fluorophenyl)-(1-isobutyl-1H-indazol-5-yl)-methanone] | – |
| active | CCON=C(c1ccc(F)cc1)c1ccc2c(cnn2CC(C)C)c1 [Compound 7f-4, (4-fluorophenyl)-(1-isobutyl-1H-indazol-5-yl)-methanone O-ethyl-oxime] | – |
| active | CC(C)Cn1ncc2cc(C(=NOCc3ccccc3)c3ccc(F)cc3F)ccc21 [Compound 7f-7, (2,4-difluorophenyl)-(1-isobutyl-1H-indazol-5-yl)-methanone O-benzyl-oxime] | – |
| active | CON=C(c1ccc(F)cc1)c1ccc2c(cnn2CC(C)C)c1 [Compound 7f-9, (4-fluorophenyl)-(1-isobutyl-1H-indazol-5-yl)-methanone O-methyl-oxime] | – |
| active | CC(C)Cn1ncc2cc(Oc3ccc(F)cc3)c(C(N)=O)cc21 [Compound 11g-1, 5-(4-fluorophenoxy)-1-isobutyl-1H-indazole-6-carboxylic acid amide] | – |
